Test results published in ChEMBL document CHEMBL1240509, “Modulators of the hedgehog signaling pathway” (Bioorg Med Chem, 2010).

Legend:
[1] = Agonist activity at hedgehog receptor; assay type: functional
[2] = Antagonist activity at hedgehog receptor; assay type: functional
[3] = Inhibition of hedgehog receptor mediated Ptch1 transcription
[4] = Inhibition of hedgehog receptor mediated Gli transcription

Structure (SMILES) | IC50 [2] | further results
CN[C@H]1CC[C@H](N(Cc2cccc(-c3ccncc3)c2)C(=O)c2sc3ccccc3c2Cl)CC1 | – | EC50 [1]: 3000 nM
CC1=C2C[C@H]3[C@@H](CC[C@@H]4Cc5n[nH]cc5C[C@@]43C)[C@@H]2CC[C@@]2(C1)O[C@@H]1C[C@H](C)CN[C@@H]1[C@H]2C | 10 nM | –
CC1=C2C[C@H]3[C@@H](CC[C@@H]4CNC(=O)CC[C@@]43C)[C@@H]2CC[C@@]2(C1)O[C@@H]1C[C@H](C)CN[C@@H]1[C@H]2C | 30 nM | –
CC(C)CC[C@H](O)[C@@H](C)[C@H]1CC[C@H]2[C@@H]3CC=C4C[C@@H](O)CC[C@]4(C)[C@H]3CC[C@]12C | – | EC50 [1]: 200 nM
C[C@H](CCCC(C)(C)O)[C@H]1CC[C@H]2[C@@H]3CC=C4C[C@@H](O)CC[C@]4(C)[C@H]3CC[C@]12C | – | EC50 [1]: 1000 nM
CC(C)[C@@H](O)CC[C@@H](C)[C@H]1CC[C@H]2[C@@H]3CC=C4C[C@@H](O)CC[C@]4(C)[C@H]3CC[C@]12C | – | EC50 [1]: 3000 nM
CC(C)CCC[C@](C)(O)[C@H]1CC[C@H]2[C@@H]3CC=C4C[C@@H](O)CC[C@]4(C)[C@H]3CC[C@@]21C | – | EC50 [1]: 100 nM
CC1=C2C[C@H]3[C@@H](CCC4=CC(=O)CC[C@@]43C)[C@@H]2CC[C@@]2(C1)O[C@@H]1C[C@H](C)CNC1[C@H]2C (single isomer, unassigned) | 200 nM | –
CC1=C2C[C@H]3[C@@H](CC=C4C[C@@H](O)CC[C@@]43C)[C@@H]2CC[C@]12O[C@@H]1C[C@H](C)CN[C@H]1[C@H]2C [CYCLOPAMINE] | – | EC50 [3]: 300 nM; EC50 ([4]; read-out: EC50): 300 nM
CC1=C2C[C@H]3[C@@H](CC=C4C[C@@H](O[C@@H]5O[C@H](CO)[C@@H](O)[C@H](O)[C@H]5O)CC[C@@]43C)[C@@H]2CC[C@]12O[C@@H]1C[C@H](C)CN[C@H]1[C@H]2C [CYCLOPOSINE] | – | EC50 ([4]; read-out: EC50): > 700 nM
CC1=C2C(=O)[C@H]3[C@@H](CC=C4C[C@@H](O)CC[C@@]43C)[C@@H]2CC[C@]12O[C@@H]1C[C@H](C)CN[C@H]1[C@H]2C [JERVINE] | – | EC50 ([4]; read-out: EC50): 500 nM
C[C@@]12C[C@H]3OC(=O)[C@@H]1CO[C@]14O[C@]5([C@H]2C1=O)[C@@](O)(CC[C@H]1[C@H]4C[C@H]2O[C@]24CC=CC(=O)[C@]14C)C(=O)O[C@@]35C [PHYSALIN F] | 660 nM | –
c1ccc2c(Oc3nc(Nc4ccc(N5CCOCC5)cc4)c4ncn(C5CCCCC5)c4n3)cccc2c1 [PURMORPHAMINE] | – | EC50 [1]: 1000 nM
Cc1c([C@H](C)[C@@H]2NC[C@@H](C)C[C@H]2O)ccc2c1C[C@H]1[C@H]2CC=C2C[C@@H](O)CC[C@@]21C [VERATRAMINE] | – | EC50 [4]: Not Active

The next lines start with results.

IC50 [2] | Structure (SMILES) | further results
20 nM | CC1=C2C[C@H]3[C@@H](CC=C4CC(=O)CC[C@@]43C)[C@@H]2CC[C@]12O[C@@H]1C[C@H](C)CN(CCNC(=O)CCCCCNC(=O)CCc3ccccc3)[C@H]1[C@H]2C | –
7 nM | CC1=C2C[C@H]3[C@@H](CC[C@@H]4C[C@H](NS(C)(=O)=O)CC[C@@]43C)[C@@H]2CC[C@@]2(C1)O[C@@H]1C[C@H](C)CN[C@@H]1[C@H]2C | –
20 nM | CCCN[C@H]1CC[C@H](N(Cc2cccc(-c3ccncc3)c2)C(=O)c2sc3ccccc3c2Cl)CC1 | –
1500 nM | COCCOC(=O)C1=C(C)NC2=C(C(=O)CC(c3ccccc3OC)C2)C1c1cccc(O)c1 (stereo not given) | –
5000 nM | CN(C)c1ccccc1CN1CCCN(Cc2ccccc2N(C)C)C1c1ccncc1 | –
5000 nM | c1cc(-c2sc(-c3ccncc3)c(-c3ccncc3)c2-c2ccncc2)ccn1 | –
30 nM | CCOc1cc(C(=O)Nc2ccc(Cl)c(-c3nc4ccccc4[nH]3)c2)cc(OCC)c1OCC | –
800 nM | CCC(C)n1ncn(-c2ccc(N3CCN(c4ccc(OCC5COC(Cn6cncn6)(c6ccc(Cl)cc6Cl)O5)cc4)CC3)cc2)c1=O (stereo not given) [ITRACONAZOLE] | –
3100 nM | O=C(C[C@@H]1C/C=C/CCC(=O)O[C@H](c2ccccc2)CNC1=O)NCc1ccc(Cl)cc1 [ROBOTNIKININ] | –
13 nM | CS(=O)(=O)c1ccc(C(=O)Nc2ccc(Cl)c(-c3ccccn3)c2)c(Cl)c1 [VISMODEGIB] | –
